Experimental data published in patent US5420128A, “Pyrimidine derivatives, method of manufacturing the same, and androgen inhibitor” (Otsuka Pharmaceutical Co., Ltd., priority 1990, dated 1995).

Target: T1, rat prostate androgen receptor (Rattus norvegicus, UniProt P15207)
T1 construct: the supernatant was obtained as cytoplasm fraction; from tissue; host or cells: cytosol (105000×g supernatant) of rat ventral prostate, 24 hours after castration
T1 sequence (P15207 1-902): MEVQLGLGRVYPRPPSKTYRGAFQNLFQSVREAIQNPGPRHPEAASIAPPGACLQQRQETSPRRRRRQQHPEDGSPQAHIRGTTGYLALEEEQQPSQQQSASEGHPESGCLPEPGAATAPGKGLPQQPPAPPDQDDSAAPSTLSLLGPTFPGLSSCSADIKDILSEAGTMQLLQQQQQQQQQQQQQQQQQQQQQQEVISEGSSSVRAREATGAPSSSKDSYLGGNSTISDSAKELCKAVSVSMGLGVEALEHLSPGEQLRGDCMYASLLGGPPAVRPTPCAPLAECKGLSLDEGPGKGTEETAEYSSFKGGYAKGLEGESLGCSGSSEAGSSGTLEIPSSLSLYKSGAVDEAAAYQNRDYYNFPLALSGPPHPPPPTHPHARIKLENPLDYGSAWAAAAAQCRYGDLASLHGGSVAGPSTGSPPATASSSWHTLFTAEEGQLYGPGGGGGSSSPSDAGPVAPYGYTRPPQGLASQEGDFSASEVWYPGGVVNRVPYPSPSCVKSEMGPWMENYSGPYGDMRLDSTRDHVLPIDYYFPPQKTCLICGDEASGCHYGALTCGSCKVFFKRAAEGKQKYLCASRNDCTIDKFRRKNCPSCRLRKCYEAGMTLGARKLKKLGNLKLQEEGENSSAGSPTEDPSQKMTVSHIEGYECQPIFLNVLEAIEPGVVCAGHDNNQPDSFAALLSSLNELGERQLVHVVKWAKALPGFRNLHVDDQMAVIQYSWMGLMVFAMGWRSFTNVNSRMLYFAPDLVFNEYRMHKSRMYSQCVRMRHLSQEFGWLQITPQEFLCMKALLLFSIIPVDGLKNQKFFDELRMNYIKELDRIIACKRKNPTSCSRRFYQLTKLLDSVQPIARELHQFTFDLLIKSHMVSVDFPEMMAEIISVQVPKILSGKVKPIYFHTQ
Test: inhibitory activity on binding of ^3 H-mibolerone on rat prostate androgen receptor
Conditions: ^3 H-mibolerone 1 nM, triamcinolone acetonide 5 μM, rat ventral prostate cytosol, 20 hours at 0° C.; read-out: Inhibitory activity on mibolerone specific binding [IC50 (M)]
Protocol: B. Measurement of inhibitory activity on binding of ^3 H-mibolerone on rat prostate androgen receptor
(1) Preparation of cytosol from rat prostate
The rat was sacrificed 24 hours after castration, and the ventral lobe of prostate was removed, and was gently homogenized, in ice-cooling water bath, at first by using Polytron and then using Potter type homogenizer, in three-fold amount of buffer solution A (1.5 mM EDTA, 2 mM dithiothreitol, 10 mM molybdate sodium, 10 % by volume of glycerol, 10 mM NaF, 25 mM phosphate sodium, pH 7.2). The obtained homogenate was filtrated through double gauze, and centrifuged at 105000×g for 60 minutes at 4° C., and the supernatant was obtained as cytoplasm fraction.
(2) Measurement of specific binding of ^3 H-mibolerone on prostate cytoplasm androgen receptor
To the cytoplasm fraction obtained in (1), ^3 H-mibolerone (87.0 Ci/mmol) was added, so that a final concentration is adjusted to 1 nM, and at the same time, in order to inhibit binding of ^3 H-mibolerone to progestin receptor, triamsinolone acetonide was added to a final concentration of 5 μM, and the final volume was adjusted to 0.4 ml with buffer solution A, and the reaction mixture was incubated for 20 hours at 0° C. After incubation, 0.5 ml of 60% hydroxylapatite slurry (washed and equilibrate with a buffer solution B: 10 mM NaH2 P04, 20 mM tris-hydrochloric acid, pH 7.2) was added, and incubated for 10 minutes at 0° C., the solution was transferred onto a glass fiber filter, and washed five times with 5 ml portions of buffer solution B containing 0.1% (weight/volume) of Triton X-100, to remove free ^3 H-mibolerone. This glass fiber was transferred into vial, and 10 ml of aquasol-2 was added, and the radioactivity was measured, and the total binding amount of ^3 H-mibolerone on prostate cytoplasm androgen receptor was determined.
The nonspecific binding amount was determined similarly by adding an unlabeled 5α-DHT in the reaction solution to a final concentration of 1 μM. The difference between the total binding amount and nonspecific binding amount was determined as the specific binding amount on the androgen receptor.
(3) Inhibitory activity of sample compounds on ^3 H-mibolerone specific binding
The compounds obtained in the experiments were added simultaneously with ^3 H-mibolerone at different concentrations to incubate same as in (2), and the specific binding amount of 3H-mibolerone on androgen receptor was determined. Comparing this value with the value obtained in (2), the IC50 value of inhibitory activity of the compounds on ^3 H-mibolerone specific binding was determined.

| Compound | IC50 |
| --- | --- |
| 7-Hydroxy-6-ethoxycarbonylmethyl-3-(4-phenylthiophenyl)pyrazolo[1,5-a]pyrimidine [Example 34] | 2.9e-07 M |
| CCc1cc(O)n2ncc(-c3ccc(Sc4ccccc4)cc3)c2n1 [Example 6, 7-Hydroxy-5-ethyl-3-(4-phenylthiophenyl)pyrazolo[1,5-a]pyrimidine] | 9e-07 M |
| CC(C)c1cc(O)n2ncc(-c3ccc(Sc4ccccc4)cc3)c2n1 [Example 7, 7-Hydroxy-5-isopropyl-3-(4-phenylthiophenyl)pyrazolo[1,5-a]pyrimidine] | 1.3e-05 M |
| Oc1cc(C2CC2)nc2c(-c3ccc(Sc4ccccc4)cc3)cnn12 [Example 8, 7-Hydroxy-5-cyclopropyl-3-(4-phenylthiophenyl)pyrazolo[1,5-a]pyrimidine] | 1.7e-06 M |
| Oc1cc(CCl)nc2c(-c3ccc(Sc4ccccc4)cc3)cnn12 [Example 9, 7-Hydroxy-5-chloromethyl-3-(4-phenylthiophenyl)pyrazolo[1,5-a]pyrimidine] | 3.1e-05 M |
| Oc1cc(-c2ccccc2)nc2c(-c3ccc(Sc4ccccc4)cc3)cnn12 [Example 10, 7-Hydroxy-5-phenyl-3-(4-phenylthiophenyl)pyrazolo[1,5-a]pyrimidine] | > 5e-06 M |
| Oc1c2c(nc3c(-c4ccc(Sc5ccccc5)cc4)cnn13)CCC2 [Example 11, 5H-6,7-Dihydro-8-hydroxy-3-(4-phenylthiophenyl)cyclopenta[d]pyrazolo[1,5-a]pyrimidine] | 4.2e-07 M |
| Oc1c2c(nc3c(-c4ccc(Sc5ccccc5)cc4)cnn13)CCCC2 [Example 12, 9-Hydroxy-3-(4-phenylthiophenyl)-5,6,7,8-tetrahydropyrazolo[5,1-b]quinazoline] | > 5e-06 M |
| Oc1cc(C(F)(F)F)nc2c(-c3ccc(Sc4ccccc4)cc3)cnn12 [Example 13, 7-Hydroxy-5-trifluoromethyl-3-(4-phenylthiophenyl)pyrazolo[1,5-a]pyrimidine] | 2e-06 M |
| CCOC(=O)c1cnc2c(-c3ccc(Sc4ccccc4)c(OC)c3)cnn2c1O [Example 14, 7-Hydroxy-6-ethoxycarbonyl-3-(3-methoxy-4-phenylthiophenyl)pyrazolo[1,5-a]pyrimidine] | 2e-07 M |
| COc1cc(-c2cnn3c(O)ccnc23)ccc1Sc1ccccc1 [Example 15, 7-Hydroxy-3-(3-methoxy-4-penylthiophenyl)pyrazolo[1,5-a]pyrimidine] | 1.5e-07 M |
| Cc1nn2c(O)ccnc2c1-c1ccc(Sc2ccccc2)cc1 [Example 18, 7-Hydroxy-2-methyl-3-(4-phenylthiophenyl)pyrazolo[1,5-a]pyrimidine] | 1.2e-06 M |
| COCc1nn2c(O)ccnc2c1-c1ccc(Sc2ccccc2)cc1 [Example 19, 7-Hydroxy-2-methoxymethyl-3-(4-phenylthiophenyl)pyrazolo[1,5-a]pyrimidine] | > 5e-06 M |
| COc1cnc2c(-c3ccc(Sc4ccccc4)cc3)cnn2c1O [Example 21, 7-Hydroxy-6-methoxy-3-(4-phenylthiophenyl)pyrazolo[1,5-a]pyrimidine] | 1.65e-07 M |
| Oc1c(F)cnc2c(-c3ccc(Sc4ccccc4)cc3)cnn12 [Example 22] | 5.2e-08 M |
| Oc1c(-c2ccccc2)cnc2c(-c3ccc(Sc4ccccc4)cc3)cnn12 [Example 23, 7-Hydroxy-6-phenyl-3-(4-phenylthiophenyl)pyrazolo[1,5-a]pyrimidine] | 5.8e-08 M |
| Cc1cnc2c(-c3ccc(Sc4ccccc4)cc3)cnn2c1O [Example 24, 7-Hydroxy-6-methyl-3-(4-phenylthiophenyl)pyrazolo[1,5-a]pyrimidine] | 6.4e-08 M |
| CCc1cnc2c(-c3ccc(Sc4ccccc4)cc3)cnn2c1O [Example 25, 7-Hydroxy-6-ethyl-3-(4-phenylthiophenyl)pyrazolo[1,5-a]pyrimidine] | 1.6e-07 M |
| CC(C)c1cnc2c(-c3ccc(Sc4ccccc4)cc3)cnn2c1O [Example 26, 7-Hydroxy-6-isopropyl-3-(4-phenylthiophenyl)pyrazolo[1,5-a]pyrimidine] | 1.8e-07 M |
| Oc1c(C2CCCCC2)cnc2c(-c3ccc(Sc4ccccc4)cc3)cnn12 [Example 27, 7-Hydroxy-6-cyclohexyl-3-(4-phenylthiophenyl)pyrazolo[1,5-a]pyrimidine] | 1.3e-07 M |

| Compound | IC50 |
| --- | --- |
| Oc1c(CCc2ccccc2)cnc2c(-c3ccc(Sc4ccccc4)cc3)cnn12 [Example 28, 7-Hydroxy-6-phenethyl-3-(4-phenylthiophenyl)pyrazolo[1,5-a]pyrimidine] | > 5e-06 M |
| Oc1c(Cc2ccccc2)cnc2c(-c3ccc(Sc4ccccc4)cc3)cnn12 [Example 29, 7-Hydroxy-6-benzyl-3-(4-phenylthiophenyl)prazolo[1,5-a]pyrimidine] | 2.5e-08 M |
| COc1ccccc1Cc1cnc2c(-c3ccc(Sc4ccccc4)cc3)cnn2c1O [Example 30, 7-Hydroxy-6-(2-methoxyphenylmethyl)-3-(4-phenylthiophenyl)pyrazolo[1,5-a]pyrimidine] | 3.2e-07 M |
| CCOC(=O)Cc1cnc2c(-c3ccc(Sc4ccccc4)cc3)cnn2c1O [Example 33, 7-Hydroxy-6-ethoxycarbonylmethyl-3-(4-phenylthiophenyl)pyrazolo[1,5-a]pyrimidine] | 2.8e-07 M |
| Oc1c(Br)cnc2c(-c3ccc(Sc4ccccc4)cc3)cnn12 [Example 35, 7-Hydroxy-6-bromo-3-(4-phenylthiophenyl)pyrazolo[1,5a]pyrimidine] | 8.8e-08 M |
| Oc1c(Cl)cnc2c(-c3ccc(Sc4ccccc4)cc3)cnn12 [Example 36, 7-Hydroxy-6-chloro-3-(4-phenylthiophenyl)pyrazolo[1,5-a]pyrimidine] | 1.3e-07 M |
| Cc1nc2c(-c3ccc(Sc4ccccc4)cc3)cnn2c(O)c1Cl [Example 37, 7-hydroxy-6-chloro-5-methyl-3-(4-phenylthiophenyl)pyrazolo[1,5-a]pyrimidine] | 5.8e-07 M |
| O=C(O)c1cnc2c(-c3ccc(Sc4ccccc4)cc3)cnn2c1O [Example 38, 7-Hydroxy-6-carboxy-3-(4-phenylthiophenyl)pyrazolo[1,5-a]pyrimidine] | 5.8e-08 M |
| O=C(O)CCc1cnc2c(-c3ccc(Sc4ccccc4)cc3)cnn2c1O [Example 39, 7-Hydroxy-6-carboxyethyl-3-(4-phenylthiophenyl)pyrazolo[1,5-a]pyrimidine] | 1.3e-07 M |
| O=C(O)Cc1cnc2c(-c3ccc(Sc4ccccc4)cc3)cnn2c1O [Example 40, 7-Hydroxy-6-carboxymethyl-3-(4-phenylthiophenyl)pyrazolo[1,5-a]pyrimidine] | 2.2e-08 M |
| O=C(Nc1ccccc1)c1cnc2c(-c3ccc(Sc4ccccc4)cc3)cnn2c1O [Example 42, 7-Hydroxy-6-(N-phenylcarbamoyl)-3-(4-phenylthiophenyl)pyrazolo[1,5-a]pyrimidine] | 3e-06 M |
| NC(=O)c1cnc2c(-c3ccc(Sc4ccccc4)cc3)cnn2c1O [Example 43] | 7.6e-08 M |
| COc1cc(-c2cnn3c(O)c(C(N)=O)cnc23)ccc1Sc1ccccc1 [Example 44, 6-Carbamoyl-7-hydroxy-3-(3-methoxy-4-phenylthiophenyl)pyrazolo[1,5-a]pyrimidine] | 7.7e-08 M |
| O=C(Nc1cc(Cl)c(Cl)c(Cl)c1)c1cnc2c(-c3ccc(Sc4ccccc4)cc3)cnn2c1O [Example 45, 7-Hydroxy-3-(4-phenylthiophenyl)-6-(N-3,4,5-trichlorophenyl)carbamoylpyrazolo[1,5-a]pyrimidine] | 4e-07 M |
| CC(C)(C)NC(=O)c1cnc2c(-c3ccc(Sc4ccccc4)cc3)cnn2c1O [Example 46, 7-Hydroxy-3-(4-phenylthiophenyl)-6-(N-t-butyl)carbamoylpyrazolo[1,5-a]pyrimidine] | 1.7e-07 M |
| N#Cc1cnc2c(-c3ccc(Sc4ccccc4)cc3)cnn2c1O [Example 47, 7-Hydroxy-6-cyano-3,(4-phenylthiophenyl)pyrazolo[1,5-a]pyrimidine] | 5e-08 M |
| c1ccc(Sc2ccc(-c3cnn4cccnc34)cc2)cc1 [Example 49, 3-(4-phenylthiophenyl)pyrazolo[1,5-a]pyrimidine] | > 5e-06 M |
| Cc1ccc(-c2cnc3c(-c4ccc(Sc5ccccc5)cc4)cnn3c2O)cc1 [Example 51, 7-Hydroxy-6-(4-methylphenyl)-3-(4-phenylthiophenyl)pyrazolo[1,5-a]pyrimidin] | 3.4e-07 M |
| COc1ccc(-c2cnc3c(-c4ccc(Sc5ccccc5)cc4)cnn3c2O)cc1 [Example 52, 7-Hydroxy-6-(4-methoxyphenyl)-3-(4-phenylthiophenyl)pyrazolo[1,5-a]pyrimidine] | 2.3e-07 M |
| COc1ccccc1-c1cnc2c(-c3ccc(Sc4ccccc4)cc3)cnn2c1O [Example 53, 7-Hydroxy-6-(2-methoxyphenyl)-3-(4-phenylthiophenyl)pyrazolo[1,5-a]pyrimidine] | 3e-07 M |
